Experiment: passive permeability, PAMPA, ADME assay (AID 1508612)
Conditions: pH 7.4, 30.0 min, 50.0 µM

Row | SMILES | Papp
1 | COc1ccc(Cl)cc1C(=O)Nc1ccc(NC(=O)c2ccco2)cc1 | 971 ×10⁻⁶ cm/s
2 | COc1ccc(S(=O)(=O)N2CCN(C(=O)C3COc4ccccc4O3)CC2)cc1 (configuration not stated) | > 1000 ×10⁻⁶ cm/s
3 | Cc1ccc(CNCc2cn[nH]c2-c2ccc(C)cc2)cc1 | > 1000 ×10⁻⁶ cm/s
4 | Nc1cccc(CNc2ccc(S(=O)(=O)Nc3nccs3)cc2)c1O | < 1 ×10⁻⁶ cm/s
5 | CNc1ccc(Br)cc(C(=O)/C=C/c2ccc(OC)cc2OC)c1=O | 143 ×10⁻⁶ cm/s
6 | c1cn2cc(-c3ccc4cn[nH]c4c3)nc(Nc3ccc(N4CCOCC4)cc3)c2n1 | 391 ×10⁻⁶ cm/s
7 | Nc1nc(Nc2ccc(S(N)(=O)=O)cc2)nn1C(=O)c1c(F)cccc1F | 1.61 ×10⁻⁶ cm/s
8 | COCc1cc(C)nc(SCC(=O)c2ccc(O)c(O)c2)c1C#N | 118 ×10⁻⁶ cm/s
9 | NC(=O)C1CCN(c2nccc(-c3ccc(Br)cc3)n2)CC1 | 360 ×10⁻⁶ cm/s
10 | CC(C)c1ccccc1-c1ncc(F)c(NCC2CCN(c3cccnc3)CC2)n1 | > 1000 ×10⁻⁶ cm/s
11 | CCOc1ccc(-c2nnc(SCC(=O)NCc3ccccc3Cl)o2)cc1 | 5.1 ×10⁻⁶ cm/s
12 | Cc1ccc(NC(=O)N(Cc2cn(C)c3ccccc23)C2CCCCC2)cc1C | 20.7 ×10⁻⁶ cm/s
13 | O=C(c1ccccc1)N1CCN(c2nc(-c3ccc(Br)cc3)cs2)CC1 | 743 ×10⁻⁶ cm/s
14 | Cc1nn(CC(=O)NCCCN2CCC(N3CCCCC3)CC2)c(=O)c2cc(-c3ccccc3)nn12 | 15.4 ×10⁻⁶ cm/s
15 | Cc1ccc(S(=O)(=O)Nc2cnccc2C(=O)Nc2nc(-c3cc4ccccc4o3)cs2)cc1 | 2.48 ×10⁻⁶ cm/s
16 | CC(C)=CCNc1ncnc2nc[nH]c12 | 54.1 ×10⁻⁶ cm/s
17 | Cc1cc(-c2nnc3n2CCCCC3)c(C)n1-c1cccc(C#N)c1 | 229 ×10⁻⁶ cm/s
18 | NC(=O)C1CCN(c2nc(-c3cccc(F)c3)cs2)CC1 | 685 ×10⁻⁶ cm/s
19 | COc1cccc(-c2csc(N3CCC(C(N)=O)CC3)n2)c1 | 638 ×10⁻⁶ cm/s
20 | COc1cc(NC(=O)c2cc(-c3ccccc3O)no2)cc(OC)c1OC | 680 ×10⁻⁶ cm/s
21 | c1cc(-c2cc(-c3ccncc3)c3cncn3c2)c2[nH]ncc2c1 | 25.1 ×10⁻⁶ cm/s
22 | CC(=O)c1c(C)[nH]c(C(=O)Nc2cccc([S+](=O)([O-])Nc3c(C)cccc3C)c2)c1C | 117 ×10⁻⁶ cm/s

Row | SMILES | Papp
23 | CCCCCCCc1c(C)nc(N2CCOCC2)[nH]c1=O | > 1000 ×10⁻⁶ cm/s
24 | CN1C(=O)c2ccccc2[S@](=O)c2ccc(C(=O)NCc3ccc(Br)cc3)cc21 | > 1000 ×10⁻⁶ cm/s
25 | CC1(C)CC2CC(C)(CN2S(=O)(=O)c2ccc(C(=O)Nc3ccc(Cl)cc3)cc2)C1 (configuration not stated) | > 1000 ×10⁻⁶ cm/s
26 | CCOC(=O)c1[nH]c(C)c(CCC(=O)N2CCN(c3cccc(C)c3C)CC2)c1C | > 1000 ×10⁻⁶ cm/s
27 | Cc1ccc(N(C)S(=O)(=O)c2ccc(-c3cnc(C4CC4)o3)cc2)cc1 | > 1000 ×10⁻⁶ cm/s
28 | CN1CCN(c2cc(-c3nc(Nc4ccc(F)c(F)c4)c4ccccc4n3)ccn2)CC1 | > 1000 ×10⁻⁶ cm/s
29 | CN1CCN(c2ccc(Nc3nn4c(=O)c5ccccc5nc4s3)cc2)CC1 | 653 ×10⁻⁶ cm/s
30 | O=C(O)c1ccccc1-c1ccc(/C=c2\sc3nc4cc(Br)cnc4n3c2=O)o1 | 12.3 ×10⁻⁶ cm/s
31 | CNc1nc(-c2cccc3ccccc23)ccc1C#N | 985 ×10⁻⁶ cm/s
32 | COc1cc2c(cc1Oc1cccc(N(C)C)c1)NC(=O)C21CCN(c2cnccn2)CC1 | > 1000 ×10⁻⁶ cm/s
33 | O=C(Cc1nc2ccc(Cl)cc2[nH]1)Nc1ccc(S(=O)(=O)Nc2nccs2)cc1 | < 1 ×10⁻⁶ cm/s
34 | CCN1CCN(C(=O)c2cc(-c3ccc(F)cc3)c3nncn3n2)CC1 | 159 ×10⁻⁶ cm/s
35 | COc1cccc(CNc2ccc(S(=O)(=O)Nc3nc4ccccc4[nH]3)cc2)c1O | 30.8 ×10⁻⁶ cm/s
36 | Cc1ccc2[nH]c(-c3ccccc3)cc(=O)c2c1 | 74.9 ×10⁻⁶ cm/s
37 | Cc1ccc(C(=O)N2CCc3sc(C(=O)NC(C)c4ccccc4)cc3C2)cc1 (configuration not stated) | 799 ×10⁻⁶ cm/s
38 | O=C(c1ccc2c(c1)ncn2-c1cccc(C(F)(F)F)c1)N1CCCCC1 | > 1000 ×10⁻⁶ cm/s
39 | COc1ccc(S(=O)(=O)N2CCOCC2)cc1NC(=O)c1cccc(-n2cccc2)c1 | < 1 ×10⁻⁶ cm/s
40 | CC(=O)c1ccc(N2CCN(S(=O)(=O)c3ccc4c(c3)n(C)c(=O)n4C)CC2)cc1 | 306 ×10⁻⁶ cm/s
41 | CNc1oc(-c2ccccc2-c2ccccc2)nc1C#N | 906 ×10⁻⁶ cm/s
42 | COc1ccc2c3c([nH]c2c1)C1CC2C(CC(O)C(OC)C2CO)CN1CC3 (configuration not stated) | 3.2 ×10⁻⁶ cm/s
43 | COC(=O)Nc1nc2ccc(C(=O)c3ccccc3)cc2[nH]1 | 282 ×10⁻⁶ cm/s
44 | COc1cc2c3cc1Oc1c(O)c(OC)cc4c1[C@@H](Cc1ccc(cc1)Oc1cc(ccc1O)C[C@H]3N(C)CC2)N(C)CC4 | 327 ×10⁻⁶ cm/s

Row | SMILES | Papp
45 | Cc1cnc(NC(=O)c2ccc(-c3cccc([N+](=O)[O-])c3)o2)s1 | 47.9 ×10⁻⁶ cm/s
46 | Cn1c2ccccc2c(=O)c2c(=O)n(-c3ccccc3)c(C3CCCCC3)nc21 | 440 ×10⁻⁶ cm/s
47 | COc1ccc(C2=Nn3c([n+](C)c4ccccc43)SC2)cc1 | < 1 ×10⁻⁶ cm/s
48 | CC[C@@]1(O)C(=O)OCc2c1cc1n(c2=O)Cc2cc3ccccc3nc2-1 | 68.3 ×10⁻⁶ cm/s
49 | CS(=O)(=O)c1ccccc1-c1csc(N2CCC(C(N)=O)CC2)n1 | 11.9 ×10⁻⁶ cm/s
50 | CCOC(=O)N1CCN(Cc2nc3c(c(=O)n(C)c(=O)n3C)n2CCC(C)C)CC1 | 765 ×10⁻⁶ cm/s
51 | COc1ccc(OCc2ccc(-c3nc(C#N)c(NC(C)c4ccccc4)o3)o2)cc1 (configuration not stated) | 20.9 ×10⁻⁶ cm/s
52 | O=C(NCc1ccncc1)c1nc(-c2cccnc2)c2cnccn12 | 6.35 ×10⁻⁶ cm/s
53 | COc1cccc(-c2nc(-c3cc4cc(OC)ccc4[nH]c3=O)no2)c1 | > 1000 ×10⁻⁶ cm/s
54 | CCOc1ccc(CNc2ccc3c(c2)ncn3C)cc1 | > 1000 ×10⁻⁶ cm/s
55 | CCn1c(C(=O)NCCc2ccc(OC)cc2)cc2sccc21 | 721 ×10⁻⁶ cm/s
56 | O=C(O)CCC(=O)Nc1nc(-c2ccccc2)cs1 | < 1 ×10⁻⁶ cm/s
57 | Oc1ccc(CNc2ccccc2F)c2cccnc12 | 34 ×10⁻⁶ cm/s
58 | Cc1ccnc(NC(=S)N2CCN(c3ccccc3C(F)(F)F)CC2)c1 | 726 ×10⁻⁶ cm/s
59 | Cc1ccnc(NC(=S)N2CCN(c3ccc(N)cc3)CC2)c1 | 717 ×10⁻⁶ cm/s
60 | CCOc1ccc(CCNC(=O)c2cc3ncccc3n2Cc2cccc(C)n2)cc1OCC | 491 ×10⁻⁶ cm/s
61 | CCC(CC)(NC(=O)C(C)C)C(=O)N[C@@H](CCCN=C(N)N)C(=O)NC1(C(=O)NC(c2ccc(F)cc2)c2ccc(F)cc2)CCCC1 | 8 ×10⁻⁶ cm/s
62 | COc1ccc(NC(=O)c2ccccc2)cc1S(=O)(=O)Nc1ccc(Br)cc1 | 731 ×10⁻⁶ cm/s
63 | N=c1c2ccccc2nnn1-c1ccc(C(F)(F)F)cc1 | 148 ×10⁻⁶ cm/s
64 | CCc1ccc(-n2nnc(-c3nsc(NC(=O)c4ccccc4Cl)n3)c2C)cc1 | 615 ×10⁻⁶ cm/s
65 | COc1ccc(C)cc1Nc1c2c(nc3ccccc13)CCC2 | > 1000 ×10⁻⁶ cm/s
66 | O=C1CCCC2=C1C1(CCCC1)N=C(Nc1nc3ccccc3o1)N2 | 294 ×10⁻⁶ cm/s

Row | SMILES | Papp
67 | CCc1ccc(NC(=O)c2[nH]c(C)c(C(C)=O)c2C)cc1[S+](=O)([O-])N1CCCCCC1 | 227 ×10⁻⁶ cm/s
68 | O=C(NC1CCCCC1)N1Cc2[nH]cnc2C[C@H]1c1nc(-c2cccc([N+](=O)[O-])c2)no1 | 202 ×10⁻⁶ cm/s
69 | Cc1ccccc1C(=O)NC1CCN(c2ccc3nnc(C4CC4)n3n2)CC1 | 97.8 ×10⁻⁶ cm/s
70 | CC1=NN(c2ccc(C(=O)O)cc2)C(=O)/C1=C/c1ccc(-c2cc(C)c(C)cc2[N+](=O)[O-])o1 | 238 ×10⁻⁶ cm/s
71 | CCCCc1ccc(NC(=O)c2ccc3c(c2)N(S(C)(=O)=O)CC3)cc1 | 706 ×10⁻⁶ cm/s
72 | O=C1Nc2ccccc2C1Cc1cc(Cl)c(O)c(Cl)c1 (configuration not stated) | 8.8 ×10⁻⁶ cm/s
73 | COc1ccc(CNC(=O)CCCn2nc(C)c3c(C)n(-c4ccc(C)cc4)nc3c2=O)cc1OC | 235 ×10⁻⁶ cm/s
74 | CCn1cc(C(=O)N2CCN(c3cccc(Cl)c3)CC2)c2cc(OC)c(OC)cc2c1=O | 833 ×10⁻⁶ cm/s
75 | CCN(CC)CCOc1ccc2c(=O)c3ccc(Cl)cc3n(CCN(CC)CC)c2c1 | > 1000 ×10⁻⁶ cm/s
76 | Cc1ccnc(NC(=O)C2CC(=O)N(c3n[nH]c4cc(Br)ccc34)C2)c1 (configuration not stated) | 563 ×10⁻⁶ cm/s
77 | O=C1Nc2cccc(Cl)c2/C1=C\c1cc(Cl)c(O)c(Cl)c1 | 93.9 ×10⁻⁶ cm/s
78 | O=C(Nc1cccnc1)c1cccs1 | 56.5 ×10⁻⁶ cm/s
79 | CN(C)C(=O)NC1CCC(CCN2CCN(c3cccc(Cl)c3Cl)CC2)CC1 (configuration not stated) | 514 ×10⁻⁶ cm/s
80 | CC1=C[C@@H](CNC(C)C)[C@H](C(C)C)C[C@H]1Cc1nnc(-c2ccncc2)o1 | 649 ×10⁻⁶ cm/s
81 | COc1cccc(C(=O)NCCSc2c(-c3ccc(F)cc3)[nH]c3ccccc23)c1OC | 37 ×10⁻⁶ cm/s
82 | CCN(CC)C(=O)c1ccc(O)c(OC)c1 | 482 ×10⁻⁶ cm/s
83 | Cc1cnc(-c2ccccc2C(F)F)nc1NCc1ccc(-n2ccnn2)cc1 | > 1000 ×10⁻⁶ cm/s
84 | COc1ccnc(NC(=S)N2CCN(c3cccc(C(F)(F)F)c3)CC2)c1 | 417 ×10⁻⁶ cm/s
85 | CC1=C(C(=O)NC2CCCCC2)C(c2ccccc2Br)N=C(Nc2nc3ccccc3o2)N1 (configuration not stated) | 734 ×10⁻⁶ cm/s
86 | CCOc1ccc(CCNC(=O)c2cc3cnccc3n2Cc2cccc(C)c2)cc1OCC | 184 ×10⁻⁶ cm/s
87 | CC[C@@]1(O)C(=O)OCc2c1cc1n(c2=O)Cc2c-1nc1cc(F)c(C)c3c1c2[C@@H](N)CC3 | 370 ×10⁻⁶ cm/s
88 | CC(=O)c1ccc(N[S+](=O)([O-])c2cccc(NC(=O)c3[nH]c(C)c(C(C)=O)c3C)c2)cc1 | < 1 ×10⁻⁶ cm/s

Row | SMILES | Papp
89 | COc1ccc(NS(=O)(=O)c2ccc(C)c(C(=O)Nc3ccc4oc(C)nc4c3)c2)cc1 | 737 ×10⁻⁶ cm/s
90 | CCOc1ccc(/C=C/c2nc3ccccc3n2S(=O)(=O)c2ccc(Br)cc2)cc1 | 926 ×10⁻⁶ cm/s
91 | Cc1ccccc1C(=O)N1CCc2cc(-c3nc(NC(=O)Cc4ccc5c(c4)OCCO5)sc3C)ccc21 | 761 ×10⁻⁶ cm/s
92 | O=C(NCCc1ccccn1)C1CC(=O)N(c2n[nH]c3cc(Br)ccc23)C1 (configuration not stated) | < 1 ×10⁻⁶ cm/s
93 | COc1ccc(NC(=O)c2c(C)cccc2C)cc1[S+](=O)([O-])N1CCCCC1 | 548 ×10⁻⁶ cm/s
94 | Cc1ccc(S(=O)(=O)Nc2cnccc2C(=O)Nc2nc(-c3ccc(Cl)c(Cl)c3)cs2)cc1 | 51.5 ×10⁻⁶ cm/s
95 | CCCNC(=O)Nc1ccc(Oc2ncnc3cc(OC)c(OC)cc23)cc1Cl | 362 ×10⁻⁶ cm/s
96 | CC(Cc1ccc(O)cc1)NCC(O)c1cc(O)cc(O)c1 (configuration not stated) | 1.9 ×10⁻⁶ cm/s
97 | Cc1nc(N2CCN(c3ccccn3)CC2)c2c(C)c(C(=O)Nc3ccc(F)cc3Cl)sc2n1 | > 1000 ×10⁻⁶ cm/s
98 | CCOc1ccccc1CNS(=O)(=O)c1ccc(-c2cnc(C3CC3)o2)cc1 | > 1000 ×10⁻⁶ cm/s
99 | O=C(Nc1ccc(C(=O)Nc2nccs2)cc1)c1ccc2ccccc2c1 | > 1000 ×10⁻⁶ cm/s
100 | CC(=O)OCCN1C(=O)c2c(C)nc3ccc(S(=O)(=O)N4CCOCC4)cc3c2C1=O | 665 ×10⁻⁶ cm/s
101 | CCOc1ccc(CNC(=O)CCCn2nc(C)c3c(C)n(-c4ccc(C)cc4)nc3c2=O)cc1 | 843 ×10⁻⁶ cm/s
102 | COc1cc(=O)n2c(c1C(=O)N(C)Cc1cscn1)CCN(C(=O)c1ccc(C)cc1C)CC2 | 9.91 ×10⁻⁶ cm/s
103 | O=C(NC1CCCc2c1cnn2-c1ccc(F)cc1F)c1ccc(C2(C(F)(F)F)N=N2)cc1 (configuration not stated) | < 1 ×10⁻⁶ cm/s
104 | CC(=O)c1sc(NC(=O)c2ccco2)nc1-c1ccccc1 | 752 ×10⁻⁶ cm/s
105 | COc1cc(-c2nc(Nc3ccc(F)c(F)c3)c3ccccc3n2)ccn1 | 22.5 ×10⁻⁶ cm/s
106 | Brc1ccc(-c2csc(N3CCCCC3)n2)cc1 | 111 ×10⁻⁶ cm/s
107 | Cn1cc(C2=C(c3cn(CCCSC(=N)N)c4ccccc34)C(=O)NC2=O)c2ccccc21 | 11.1 ×10⁻⁶ cm/s
